Experimental data taken from US6586393B2, “Antibiotics GE 23077, pharmaceutically acceptable salts and compositions, and use thereof” (priority 2000, dated 2003).
Where two headings read alike, the source gives them in different places.

Key:
M. catarrhalis = test: Activity of concentrated HPLC fractions of the complex against M. catarrhalis; assay type: cell-based, Moraxella catarrhalis; details: eluates of HPLC fractionation of the complex, concentrated under vacuum
[1] = Conversion of factors A2 and B2 into A1 and B1 in DMSO (NMR); assay type: physicochemical; details: room temperature
From the text: The GE23077 complex is constituted of two couples of isomers: factors A1, A2 and factors B1, B2. It was observed that the individual pure Factor A1 and Factor A2, when kept in water solution or in mixtures of water miscible solvents and water solutions, reach an equilibrium state between them. […] The equilibration rate was accelerated at acidic and basic pHs. […] Accordingly, if recorded after complete conversion, the spectra relating to factors A2 and B2 correspond to the ones of the factors A1 and B1, respectively.

E. coli RNA polymerase = molecular target: T1, E. coli RNA polymerase (Escherichia coli, UniProt P0A8T7+P0A8V2); test: Inhibition of RNA polymerase, cell free transcription assay (3H-UTP incorporation); assay type: biochemical; details: 37° C., 15 minutes
T1 construct: purchased Epicentre Technology; Madison Wis
T1 sequence (P0A8V2 whole entry): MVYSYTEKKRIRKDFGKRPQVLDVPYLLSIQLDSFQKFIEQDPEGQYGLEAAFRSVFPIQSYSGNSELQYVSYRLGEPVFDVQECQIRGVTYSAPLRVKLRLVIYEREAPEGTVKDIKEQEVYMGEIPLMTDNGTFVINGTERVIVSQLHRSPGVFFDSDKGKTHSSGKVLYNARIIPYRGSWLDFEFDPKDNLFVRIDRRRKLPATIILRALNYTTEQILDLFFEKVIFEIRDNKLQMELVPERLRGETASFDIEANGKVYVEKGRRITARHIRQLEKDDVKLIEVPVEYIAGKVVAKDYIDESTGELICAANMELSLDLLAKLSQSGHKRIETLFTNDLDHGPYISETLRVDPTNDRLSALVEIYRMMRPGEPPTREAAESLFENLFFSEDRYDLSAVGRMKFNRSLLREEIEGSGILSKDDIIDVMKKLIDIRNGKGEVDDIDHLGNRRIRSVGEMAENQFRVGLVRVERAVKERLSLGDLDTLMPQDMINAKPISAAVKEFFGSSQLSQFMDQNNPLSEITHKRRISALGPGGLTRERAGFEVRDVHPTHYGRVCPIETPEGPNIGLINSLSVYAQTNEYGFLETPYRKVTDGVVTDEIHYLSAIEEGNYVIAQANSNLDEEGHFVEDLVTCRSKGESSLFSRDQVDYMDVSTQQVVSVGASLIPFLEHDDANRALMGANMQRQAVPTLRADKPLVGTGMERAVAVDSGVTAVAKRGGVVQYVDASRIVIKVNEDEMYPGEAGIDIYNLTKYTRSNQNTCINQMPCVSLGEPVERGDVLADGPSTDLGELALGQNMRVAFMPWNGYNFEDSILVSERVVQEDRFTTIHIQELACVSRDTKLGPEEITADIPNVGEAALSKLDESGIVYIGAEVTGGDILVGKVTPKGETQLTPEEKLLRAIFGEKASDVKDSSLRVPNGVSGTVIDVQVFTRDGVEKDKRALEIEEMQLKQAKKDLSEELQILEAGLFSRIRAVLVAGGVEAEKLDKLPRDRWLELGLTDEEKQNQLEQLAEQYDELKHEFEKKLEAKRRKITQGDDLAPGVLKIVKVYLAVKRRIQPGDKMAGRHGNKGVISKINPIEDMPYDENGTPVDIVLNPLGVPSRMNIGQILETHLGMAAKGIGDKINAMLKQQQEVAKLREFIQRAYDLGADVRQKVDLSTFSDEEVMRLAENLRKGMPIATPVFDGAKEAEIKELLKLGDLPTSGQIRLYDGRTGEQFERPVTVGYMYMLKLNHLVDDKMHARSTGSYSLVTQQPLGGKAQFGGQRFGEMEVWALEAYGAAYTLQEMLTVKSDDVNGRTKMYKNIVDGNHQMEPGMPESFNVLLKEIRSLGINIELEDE
T1 sequence (P0A8T7 whole entry): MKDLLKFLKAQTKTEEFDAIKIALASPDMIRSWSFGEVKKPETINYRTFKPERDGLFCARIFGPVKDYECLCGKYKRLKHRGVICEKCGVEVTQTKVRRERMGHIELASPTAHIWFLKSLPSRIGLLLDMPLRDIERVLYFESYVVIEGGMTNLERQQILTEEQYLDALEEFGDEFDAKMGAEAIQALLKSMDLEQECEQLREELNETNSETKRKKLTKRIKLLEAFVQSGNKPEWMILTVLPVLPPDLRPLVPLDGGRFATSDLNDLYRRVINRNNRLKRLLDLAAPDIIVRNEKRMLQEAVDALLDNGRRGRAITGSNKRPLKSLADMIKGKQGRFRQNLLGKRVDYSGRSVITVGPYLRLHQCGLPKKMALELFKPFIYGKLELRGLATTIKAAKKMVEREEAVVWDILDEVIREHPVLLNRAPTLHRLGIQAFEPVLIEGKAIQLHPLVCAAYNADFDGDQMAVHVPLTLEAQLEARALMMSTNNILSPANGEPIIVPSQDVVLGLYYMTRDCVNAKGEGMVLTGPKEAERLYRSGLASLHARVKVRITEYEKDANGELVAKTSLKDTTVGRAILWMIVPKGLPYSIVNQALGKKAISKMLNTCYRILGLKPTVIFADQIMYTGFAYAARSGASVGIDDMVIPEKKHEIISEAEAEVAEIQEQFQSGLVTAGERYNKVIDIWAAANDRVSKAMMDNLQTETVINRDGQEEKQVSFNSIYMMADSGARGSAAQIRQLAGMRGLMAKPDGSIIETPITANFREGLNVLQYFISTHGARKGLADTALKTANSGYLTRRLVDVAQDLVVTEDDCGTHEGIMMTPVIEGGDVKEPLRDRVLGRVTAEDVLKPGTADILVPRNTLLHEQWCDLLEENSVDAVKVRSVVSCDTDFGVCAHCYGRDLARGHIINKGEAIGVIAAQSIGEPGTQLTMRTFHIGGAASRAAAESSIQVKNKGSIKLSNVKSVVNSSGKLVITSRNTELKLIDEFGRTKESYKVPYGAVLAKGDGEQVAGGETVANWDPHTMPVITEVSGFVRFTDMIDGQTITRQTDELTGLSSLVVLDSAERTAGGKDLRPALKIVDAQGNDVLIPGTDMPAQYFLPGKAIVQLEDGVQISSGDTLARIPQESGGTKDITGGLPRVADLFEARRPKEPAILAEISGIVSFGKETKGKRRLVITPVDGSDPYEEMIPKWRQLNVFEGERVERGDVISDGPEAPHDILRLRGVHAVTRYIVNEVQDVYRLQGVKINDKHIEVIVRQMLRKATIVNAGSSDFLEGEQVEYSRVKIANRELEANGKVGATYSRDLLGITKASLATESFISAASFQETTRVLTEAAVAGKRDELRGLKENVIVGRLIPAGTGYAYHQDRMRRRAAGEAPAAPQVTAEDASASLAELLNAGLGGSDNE
T1 sequence (P0A7Z4 whole entry partner): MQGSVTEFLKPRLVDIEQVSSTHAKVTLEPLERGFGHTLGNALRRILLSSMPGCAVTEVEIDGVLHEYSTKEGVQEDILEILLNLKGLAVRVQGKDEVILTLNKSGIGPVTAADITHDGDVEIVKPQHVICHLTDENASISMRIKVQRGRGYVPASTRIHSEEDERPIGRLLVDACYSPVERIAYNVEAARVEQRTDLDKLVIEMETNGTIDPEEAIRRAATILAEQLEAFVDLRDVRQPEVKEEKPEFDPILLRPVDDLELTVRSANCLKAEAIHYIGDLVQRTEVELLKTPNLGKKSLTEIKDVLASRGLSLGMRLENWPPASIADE
T1 sequence (P0A800 whole entry partner): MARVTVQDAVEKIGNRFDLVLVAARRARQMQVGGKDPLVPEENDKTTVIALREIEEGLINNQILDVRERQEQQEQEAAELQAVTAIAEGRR
Protocol: The inhibition of RNA polymerase was determined in a cell free transcription assay performed in standard U-bottom 96-well plates. The [H^3]-UTP incorporation in RNA was measured in the material precipitated upon addition of trichloroacetic acid (TCA). The reaction mixture contained 50 mM Tris-HCl (pH8), 50 mM KCl, 10 mM MgCl2, 0.1 mM EDTA, 5 mM dithiothreitol (DTT), 10 μg/ml BSA, 20: g/ml calf thymus DNA, 1 mM ATP, 1 mM CTP, 1 mM GTP, 0.5 mCi ^3H-UTP and 0.5 U of E. coli RNA polymerase enzyme (Epicentre Technology; Madison Wis.). 5 μl of the tested solution were added to 45 μl of reaction mixture, incubated at 37° C. for 15 minutes and then quenched with 150 μl of ice-cold 10% (w/v) TCA. After 30 min in ice, the well content was collected on glass-fiber filters (Filtermat A, Wallac) using a 96 wells cell harvester (Wallac) and radioactivity was determined in a β-Plate scintillation counter (Wallac). Count per min (CPM) values are transformed in % of RNA polymerase inhibition by using the following formula:
% of RNA polymerase=100−[(CPM compound−CPM blank)/(CPM control−CPM blank)]*100
where: CPM compound is CPM in well with compound; CPM blank is CPM average in wells without enzyme template and CPM control is CPM average in wells without compound.

SMILES | Inhibition of M. catarrhalis by HPLC fractions containing the separated factors (M. catarrhalis) | Time for full conversion into factor A1 / B1 [1] | IC50 (E. coli RNA polymerase; IC50 of E. coli RNA polymerase) | Time for full conversion into factor A1 / B1 (in words) [1] | IC50 (E. coli RNA polymerase; read-out: IC50 of E. coli RNA polymerase (converted))
CC=C(C)C(=O)NCC1NC(=O)C(C(=O)O)NC(=O)C(O)CNC(=O)C(C(C)O)NC(=O)C(C(O)C(O)C(N)=O)NC(=O)C(C(C)C)NC(=O)C(CO)NC1=O (single isomer, unassigned) [Factor A2] | inhibited the test microorganism | 12 h | 43.5 nM |  | 
CC(C)CC(=O)NCC1NC(=O)C(C(=O)O)NC(=O)C(O)CNC(=O)C(C(C)O)NC(=O)C(C(O)C(O)C(N)=O)NC(=O)C(C(C)C)NC(=O)C(CO)NC1=O (single isomer, unassigned) [Factor B2] | inhibited the test microorganism |  |  | few minutes | 24.8 nM
CC=C(C)C(=O)NCC1NC(=O)C(C(=O)O)NC(=O)C(O)CNC(=O)C(C(C)O)NC(=O)C(C(O)C(O)C(N)=O)NC(=O)C(C(C)C)NC(=O)C(CO)NC1=O (single isomer, unassigned) [Factor A1] | inhibited the test microorganism |  | 187 nM |  | 
CC(C)CC(=O)NCC1NC(=O)C(C(=O)O)NC(=O)C(O)CNC(=O)C(C(C)O)NC(=O)C(C(O)C(O)C(N)=O)NC(=O)C(C(C)C)NC(=O)C(CO)NC1=O (single isomer, unassigned) [Factor B1] | inhibited the test microorganism |  | 124 nM |  | 
